# Test results from PubChem BioAssay AID651978 (The Scripps Research Institute Molecular Screening Center, 2013).
# The source made the active and inactive calls. How the calls were made is not given here.
# How the values were obtained:
# Test in all cases: PubChem AID 651978
# DPP9 = conditions: BW5147 mouse T-cell proteome, ABPP-SILAC LC-MS ratio, at 1 µM, active compounds read low
# PRCP = conditions: BW5147 mouse T-cell proteome, ABPP-SILAC LC-MS ratio, at 1 µM, active compounds read low
# SIAE = conditions: BW5147 mouse T-cell proteome, ABPP-SILAC LC-MS ratio, at 1 µM, active compounds read low
# [1] = molecular target: Platelet-activating factor acetylhydrolase 2, cytoplasmic (Mus musculus) (UniProt Q8VDG7); conditions: BW5147 mouse T-cell proteome, ABPP-SILAC LC-MS ratio; PAFAH2; at 1 µM; active compounds read low
# Sequence of Platelet-activating factor acetylhydrolase 2, cytoplasmic (Mus musculus) (Q8VDG7 whole entry, looked up): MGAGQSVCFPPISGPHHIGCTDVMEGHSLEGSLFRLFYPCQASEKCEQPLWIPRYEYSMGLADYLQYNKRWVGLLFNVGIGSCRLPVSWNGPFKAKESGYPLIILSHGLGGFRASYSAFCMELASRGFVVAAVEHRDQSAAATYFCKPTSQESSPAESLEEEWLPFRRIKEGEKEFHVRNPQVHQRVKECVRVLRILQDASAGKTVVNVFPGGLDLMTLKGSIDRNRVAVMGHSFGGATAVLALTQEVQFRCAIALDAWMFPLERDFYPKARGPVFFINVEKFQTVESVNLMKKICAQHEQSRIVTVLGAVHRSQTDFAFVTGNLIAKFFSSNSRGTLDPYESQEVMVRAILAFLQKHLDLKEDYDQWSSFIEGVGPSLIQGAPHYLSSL
# LIPA = conditions: BW5147 mouse T-cell proteome, ABPP-SILAC LC-MS ratio, at 1 µM, active compounds read low
# [2] = molecular target: sn-1-specific diacylglycerol lipase ABHD11 (Mus musculus) (UniProt Q8K4F5); conditions: BW5147 mouse T-cell proteome, ABPP-SILAC LC-MS ratio, at 1 µM, active compounds read low
# Sequence of sn-1-specific diacylglycerol lipase ABHD11 (Mus musculus) (Q8K4F5 whole entry, looked up): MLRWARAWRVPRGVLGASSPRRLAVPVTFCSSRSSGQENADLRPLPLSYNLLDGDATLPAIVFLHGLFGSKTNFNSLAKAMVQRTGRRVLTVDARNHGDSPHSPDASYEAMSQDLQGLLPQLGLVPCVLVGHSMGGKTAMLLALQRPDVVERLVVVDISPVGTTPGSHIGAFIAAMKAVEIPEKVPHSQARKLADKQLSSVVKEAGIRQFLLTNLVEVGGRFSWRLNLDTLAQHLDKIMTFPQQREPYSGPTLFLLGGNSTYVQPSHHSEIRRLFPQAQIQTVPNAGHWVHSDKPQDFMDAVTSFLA
# PNPLA7 = conditions: BW5147 mouse T-cell proteome, ABPP-SILAC LC-MS ratio, at 1 µM, active compounds read low
# APEH = conditions: BW5147 mouse T-cell proteome, ABPP-SILAC LC-MS ratio, at 1 µM, active compounds read low
# ACOT1 = conditions: BW5147 mouse T-cell proteome, ABPP-SILAC LC-MS ratio, at 1 µM, active compounds read low
# ESD = conditions: BW5147 mouse T-cell proteome, ABPP-SILAC LC-MS ratio, at 1 µM, active compounds read low
# [3] = molecular target: Palmitoyl-protein thioesterase ABHD10, mitochondrial (Mus musculus) (UniProt Q6PE15); conditions: BW5147 mouse T-cell proteome, ABPP-SILAC LC-MS ratio, at 1 µM, active compounds read low
# Sequence of Palmitoyl-protein thioesterase ABHD10, mitochondrial (Mus musculus) (Q6PE15 whole entry, looked up): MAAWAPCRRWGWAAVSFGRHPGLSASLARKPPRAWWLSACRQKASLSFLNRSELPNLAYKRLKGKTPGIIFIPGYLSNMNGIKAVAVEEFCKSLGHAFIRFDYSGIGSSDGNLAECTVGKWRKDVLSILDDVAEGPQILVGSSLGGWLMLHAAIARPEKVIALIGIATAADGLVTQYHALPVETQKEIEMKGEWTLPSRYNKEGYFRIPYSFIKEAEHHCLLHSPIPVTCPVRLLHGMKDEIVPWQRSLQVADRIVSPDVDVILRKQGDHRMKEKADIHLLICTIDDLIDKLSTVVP
# DPP4 = conditions: BW5147 mouse T-cell proteome, ABPP-SILAC LC-MS ratio, at 1 µM, active compounds read low
# PAFAH1B2 = conditions: BW5147 mouse T-cell proteome, ABPP-SILAC LC-MS ratio, at 1 µM, active compounds read low
# FAAH = conditions: BW5147 mouse T-cell proteome, ABPP-SILAC LC-MS ratio, at 1 µM, active compounds read low
# DPP8 = conditions: BW5147 mouse T-cell proteome, ABPP-SILAC LC-MS ratio, at 1 µM, active compounds read low
# [4] = molecular target: Prolyl endopeptidase (Mus musculus) (UniProt Q9QUR6); conditions: BW5147 mouse T-cell proteome, ABPP-SILAC LC-MS ratio; PREP; at 1 µM; active compounds read low
# Sequence of Prolyl endopeptidase (Mus musculus) (Q9QUR6 whole entry, looked up): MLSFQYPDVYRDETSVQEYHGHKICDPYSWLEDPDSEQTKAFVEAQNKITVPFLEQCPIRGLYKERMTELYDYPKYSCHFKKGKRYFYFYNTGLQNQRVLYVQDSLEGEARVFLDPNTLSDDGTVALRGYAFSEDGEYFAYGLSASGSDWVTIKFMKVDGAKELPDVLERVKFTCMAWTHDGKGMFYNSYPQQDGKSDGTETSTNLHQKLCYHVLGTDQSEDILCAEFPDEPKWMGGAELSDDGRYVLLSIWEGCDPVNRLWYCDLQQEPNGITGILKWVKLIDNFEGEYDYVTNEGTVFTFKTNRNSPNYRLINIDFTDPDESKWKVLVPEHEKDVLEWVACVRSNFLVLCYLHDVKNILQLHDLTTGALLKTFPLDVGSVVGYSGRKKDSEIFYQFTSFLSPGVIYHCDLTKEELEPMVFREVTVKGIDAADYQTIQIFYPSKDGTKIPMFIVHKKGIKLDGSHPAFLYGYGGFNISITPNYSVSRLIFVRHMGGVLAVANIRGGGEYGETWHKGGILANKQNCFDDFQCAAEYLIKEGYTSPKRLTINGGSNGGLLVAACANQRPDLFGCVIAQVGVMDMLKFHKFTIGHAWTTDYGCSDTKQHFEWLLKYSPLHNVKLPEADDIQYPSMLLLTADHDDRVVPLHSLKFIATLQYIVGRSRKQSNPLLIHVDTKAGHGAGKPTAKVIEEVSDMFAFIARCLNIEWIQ
# DPP7 = conditions: BW5147 mouse T-cell proteome, ABPP-SILAC LC-MS ratio, at 1 µM, active compounds read low
# FASN = conditions: BW5147 mouse T-cell proteome, ABPP-SILAC LC-MS ratio, at 1 µM, active compounds read low
# [5] = molecular target: Acyl-protein thioesterase 1 (Mus musculus) (UniProt P97823); conditions: BW5147 mouse T-cell proteome, ABPP-SILAC LC-MS ratio; LYPLA1; at 1 µM; active compounds read low
# Sequence of Acyl-protein thioesterase 1 (Mus musculus) (P97823 whole entry, looked up): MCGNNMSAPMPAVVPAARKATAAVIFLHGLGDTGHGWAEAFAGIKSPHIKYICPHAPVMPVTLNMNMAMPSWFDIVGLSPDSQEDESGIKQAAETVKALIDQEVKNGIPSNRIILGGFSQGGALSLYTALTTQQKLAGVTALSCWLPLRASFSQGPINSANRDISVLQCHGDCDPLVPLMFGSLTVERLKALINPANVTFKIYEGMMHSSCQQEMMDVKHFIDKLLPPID
# AADACL1 = conditions: BW5147 mouse T-cell proteome, ABPP-SILAC LC-MS ratio, at 1 µM, active compounds read low
# PREPL = conditions: BW5147 mouse T-cell proteome, ABPP-SILAC LC-MS ratio, at 1 µM, active compounds read low
# LYPLA2 = conditions: BW5147 mouse T-cell proteome, ABPP-SILAC LC-MS ratio, at 1 µM, active compounds read low
# PAFAH1B3 = conditions: BW5147 mouse T-cell proteome, ABPP-SILAC LC-MS ratio, at 1 µM, active compounds read low
# ABHD12 = conditions: BW5147 mouse T-cell proteome, ABPP-SILAC LC-MS ratio, at 1 µM, active compounds read low
# [6] = molecular target: Monoacylglycerol lipase ABHD6 (Mus musculus) (UniProt Q8R2Y0); conditions: BW5147 mouse T-cell proteome, ABPP-SILAC LC-MS ratio, at 1 µM, active compounds read low
# Sequence of Monoacylglycerol lipase ABHD6 (Mus musculus) (Q8R2Y0 whole entry, looked up): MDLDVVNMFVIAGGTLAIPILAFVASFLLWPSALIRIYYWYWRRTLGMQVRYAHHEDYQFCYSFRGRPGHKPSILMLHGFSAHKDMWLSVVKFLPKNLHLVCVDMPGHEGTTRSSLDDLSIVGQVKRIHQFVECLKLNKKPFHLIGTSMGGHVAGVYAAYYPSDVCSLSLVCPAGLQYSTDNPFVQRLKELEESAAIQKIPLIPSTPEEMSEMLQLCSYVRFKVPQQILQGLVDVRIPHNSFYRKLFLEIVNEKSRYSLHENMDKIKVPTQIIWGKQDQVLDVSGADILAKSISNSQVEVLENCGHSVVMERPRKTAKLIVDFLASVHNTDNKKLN
# LACTB = conditions: BW5147 mouse T-cell proteome, ABPP-SILAC LC-MS ratio, at 1 µM, active compounds read low
# ACOT2 = conditions: BW5147 mouse T-cell proteome, ABPP-SILAC LC-MS ratio, at 1 µM, active compounds read low
# PNPLA6 = conditions: BW5147 mouse T-cell proteome, ABPP-SILAC LC-MS ratio, at 1 µM, active compounds read low
# CTSA = conditions: BW5147 mouse T-cell proteome, ABPP-SILAC LC-MS ratio, at 1 µM, active compounds read low
structure (smiles),measurement,setting,value
O=C(CN1CCN(C(=O)c2ccco2)CC1)Nc1cc(C(F)(F)F)ccc1Cl,light/heavy ratio (remaining activity),DPP9,1.06 (inactive)
same,light/heavy ratio (remaining activity),PRCP,0.97 (inactive)
same,light/heavy ratio (remaining activity),SIAE,0.98 (inactive)
same,light/heavy ratio (remaining activity),[1],1.3 (inactive)
same,light/heavy ratio (remaining activity),LIPA,1.12 (inactive)
same,light/heavy ratio (remaining activity),[2],0.74 (inactive)
same,light/heavy ratio (remaining activity),PNPLA7,1.29 (inactive)
same,light/heavy ratio (remaining activity),APEH,1.06 (inactive)
same,light/heavy ratio (remaining activity),ACOT1,1.22 (inactive)
same,light/heavy ratio (remaining activity),ESD,1.05 (inactive)
same,light/heavy ratio (remaining activity),[3],0.76 (inactive)
same,light/heavy ratio (remaining activity),DPP4,1.24 (inactive)
same,light/heavy ratio (remaining activity),PAFAH1B2,1.04 (inactive)
same,light/heavy ratio (remaining activity),FAAH,1.19 (inactive)
same,light/heavy ratio (remaining activity),DPP8,1.08 (inactive)
same,light/heavy ratio (remaining activity),[4],1.08 (inactive)
same,light/heavy ratio (remaining activity),DPP7,0.87 (inactive)
same,light/heavy ratio (remaining activity),FASN,1.1 (inactive)
same,light/heavy ratio (remaining activity),[5],0.03
same,light/heavy ratio (remaining activity),AADACL1,1.05 (inactive)
same,light/heavy ratio (remaining activity),PREPL,0.95 (inactive)
same,light/heavy ratio (remaining activity),LYPLA2,0.84 (inactive)
same,light/heavy ratio (remaining activity),PAFAH1B3,1.04 (inactive)
same,light/heavy ratio (remaining activity),ABHD12,1.29 (inactive)
same,light/heavy ratio (remaining activity),[6],1.18 (inactive)
same,light/heavy ratio (remaining activity),LACTB,1.23 (inactive)
same,light/heavy ratio (remaining activity),ACOT2,1.08 (inactive)
same,light/heavy ratio (remaining activity),PNPLA6,1.2 (inactive)
same,light/heavy ratio (remaining activity),CTSA,1.11 (inactive)
